Broadly, the inhibition is the relative decrease from the control value, in per cent. Read a low inhibition as a response near the control.

T1 sequence (Q9GZT9 whole entry, species assumed): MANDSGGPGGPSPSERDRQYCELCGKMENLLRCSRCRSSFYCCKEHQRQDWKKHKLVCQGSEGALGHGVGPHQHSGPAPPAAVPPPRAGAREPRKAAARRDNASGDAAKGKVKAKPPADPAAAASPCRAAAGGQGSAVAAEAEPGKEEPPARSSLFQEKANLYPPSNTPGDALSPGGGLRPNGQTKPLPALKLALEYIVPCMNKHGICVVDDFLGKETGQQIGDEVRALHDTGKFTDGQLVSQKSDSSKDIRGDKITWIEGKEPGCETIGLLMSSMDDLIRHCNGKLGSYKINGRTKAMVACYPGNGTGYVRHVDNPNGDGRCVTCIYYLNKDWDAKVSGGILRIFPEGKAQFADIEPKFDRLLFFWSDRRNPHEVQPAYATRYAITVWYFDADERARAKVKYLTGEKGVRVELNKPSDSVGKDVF

The first assay has as its target T1, HIF-PH2 (Homo sapiens, UniProt Q9GZT9).
T1 construct: made in house; host or cells: insect Hi5 cells
In words: HIF-PH assay (14CO2 capture, peptide-dependent turnover). The format is biochemical. The settings on record: Concentration 7.41 μM. An excerpt:
Ketoglutaric acid α-[1-^14C]-sodium salt, alpha-ketoglutaric acid sodium salt, and HPLC purified peptide may be obtained from commercial sources, e.g., Perkin-Elmer (Wellesley Mass.), Sigma-Aldrich, and SynPep Corp. (Dublin Calif.), respectively. Peptides for use in the assay may be fragments of HIFα as described above or as disclosed in International Publication WO 2005/118836, incorporated by reference herein. For example, a HIF peptide for use in the HIF-PH assay is [methoxycoumarin]-DLDLEALAPYIPADDDFQL-amide. HIF-PH, e.g., HIF-PH2 (EGLN1), can be expressed in, e.g., insect Hi5 cells, and partially purified, e.g., through a SP ion exchange chromatography column. Enzyme activity is determined by capturing ^14CO2 using an assay described by Kivirikko and Myllyla (1982, Methods Enzymol. 82:245-304). Assay reactions contain 50 mM HEPES (pH 7.4), 100 μM α-ketoglutaric acid sodium salt, 0.30 μCi/mL ketoglutaric acid α-[1-^14C]-sodium salt, 40 μM FeSO4, 1 mM ascorbate, 1541.8 units/mL Catalase, with or without 50 μM peptide substrate and various concentrations of compound of the invention. Reactions are initiated by addition of HIF-PH enzyme.
The peptide-dependent percent turnover is calculated by subtracting percent turnover in the absence of peptide from percent turnover in the presence of substrate peptide. Percent inhibition and IC50 are calculated using peptide-dependent percent turnover at given inhibitor concentrations. Calculation of IC50 values for each inhibitor is conducted using GraFit software (Erithacus Software Ltd., Surrey UK).
Representative compounds of the invention were analyzed using the HIF-PH assay described above. Table I presents enzyme inhibition data for exemplary compounds against HIF-PH2, a representative HIF prolyl hydroxylase. By inhibiting HIF prolyl hydroxylase, compounds of the invention stabilize HIFα, which then combines with HIFβ to form an active transcription factor that increases expression of various genes involved in numerous beneficial cellular processes.
The molecule `O=C(O)CNC(=O)c1c(O)c2cc(-c3ccc(C(F)(F)F)cc3)ccc2oc1=O` [Example 5, {[4-Hydroxy-2-oxo-6-(4-trifluoromethyl-phenyl)-2H-chromene-3-carbonyl]-amino}-acetic acid] gave an inhibition at 7.41 µM of 96%.

Consider `O=C(O)CNC(=O)c1c(O)c2cc(-c3ccc(Oc4ccccc4)cc3)ccc2oc1=O` [Example 4, {[4-Hydroxy-2-oxo-6-(4-phenoxy-phenyl)-2H-chromene-3-carbonyl]-amino}-acetic acid], for which the inhibition at 7.41 µM came to 100%.

In turn, `COc1ccc(-c2ccc3oc(=O)c(C(=O)NCC(=O)O)c(O)c3c2)cc1` [Example 3, {[4-Hydroxy-6-(4-methoxy-phenyl)-2-oxo-2H-chromene-3-carbonyl]-amino}-acetic acid] registered an inhibition at 7.41 µM of 94%.

The same assay, now with this note: Concentration 12.50 μM.
The molecule `O=C(O)CNC(=O)c1c(O)c2ccc3ccccc3c2oc1=O` [Example 31, [(4-Hydroxy-2-oxo-2H-benzo[h]chromene-3-carbonyl)-amino]-acetic acid] gave an inhibition at 12.5 µM of 100%.

In turn, `O=C(O)CNC(=O)c1c(O)c2cc(F)cc(F)c2oc1=O` [Example 18, [(6,8-Difluoro-4-hydroxy-2-oxo-2H-chromene-3-carbonyl)-amino]-acetic acid] had an inhibition at 12.5 µM of 95%.

As for `O=C(O)CNC(=O)c1c(O)c2cc3cc(Br)ccc3c(Br)c2oc1=O` [Example 34, [(7,10-Dibromo-4-hydroxy-2-oxo-2H-benzo[g]chromene-3-carbonyl)-amino]-acetic acid], the inhibition at 12.5 µM turned out to be 100%.

Take `O=C(O)CNC(=O)c1c(O)c2cc(-c3ccco3)ccc2oc1=O` [Example 28, [(6-Furan-2-yl-4-hydroxy-2-oxo-2H-chromene-3-carbonyl)-amino]-acetic acid]: testing at 12.5 µM gave an inhibition of 100%.

In the case of `O=C(O)CNC(=O)c1c(O)c2cc(F)ccc2oc1=O` [Example 16, [(6-Fluoro-4-hydroxy-2-oxo-2H-chromene-3-carbonyl)-amino]-acetic acid], 12.5 µM produced 96% inhibition.

The molecule `Cc1cc2oc(=O)c(C(=O)NCC(=O)O)c(O)c2cc1C` [Example 15, [(4-Hydroxy-6,7-dimethyl-2-oxo-2H-chromene-3-carbonyl)-amino]-acetic acid] gave an inhibition at 12.5 µM of 98%.

With `O=C(O)CNC(=O)c1c(O)c2cc(-c3cccs3)ccc2oc1=O` [Example 27, [(4-Hydroxy-2-oxo-6-thiophen-2-yl-2H-chromene-3-carbonyl)-amino]-acetic acid], the inhibition at 12.5 µM amounted to 99%.

Take `O=C(O)CNC(=O)c1c(O)c2ccc(F)cc2oc1=O` [Example 17, [(7-Fluoro-4-hydroxy-2-oxo-2H-chromene-3-carbonyl)-amino]-acetic acid]: the inhibition at 12.5 µM came out at 98%.

Consider `O=C(O)CNC(=O)c1c(O)c2cc3ccccc3cc2oc1=O` [Example 32, [(4-Hydroxy-2-oxo-2H-benzo[g]chromene-3-carbonyl)-amino]-acetic acid], for which testing at 12.5 µM gave an inhibition of 98%.

As to `Cc1ccc2c(O)c(C(=O)NCC(=O)O)c(=O)oc2c1` [Example 35, [(4-Hydroxy-7-methyl-2-oxo-2H-chromene-3-carbonyl)-amino]-acetic acid], the inhibition at 12.5 µM came to 97%.

The same assay, now with this note: Concentration 22.22 μM.
`O=C(O)CNC(=O)c1c(O)c2ccccc2oc1=O` [Example 1, [(4-Hydroxy-2-oxo-2H-chromene-3-carbonyl)-amino]-acetic acid]: the inhibition at 22.22 µM worked out at 96%.

For `O=C(O)CNC(=O)c1c(O)c2ccc(-c3ccc(Oc4ccccc4)cc3)cc2oc1=O` [Example 11, {[4-Hydroxy-2-oxo-7-(4-phenoxy-phenyl)-2H-chromene-3-carbonyl]-amino}-acetic acid], the inhibition at 22.22 µM is 100%.

In the case of `O=C(O)CNC(=O)c1c(O)c2ccc(Oc3ccccc3)cc2oc1=O` [Example 9, [(4-Hydroxy-2-oxo-7-phenoxy-2H-chromene-3-carbonyl)-amino]-acetic acid], the inhibition at 22.22 µM amounted to 100%.

In turn, `O=C(O)CNC(=O)c1c(O)c2cc(-c3ccc(OCc4ccccc4)cc3)ccc2oc1=O` [Example 8, {[6-(4-Benzyloxy-phenyl)-4-hydroxy-2-oxo-2H-chromene-3-carbonyl]-amino}-acetic acid] yielded an inhibition at 22.22 µM of 100%.

Regarding `C[C@H](NC(=O)c1c(O)c2ccc(-c3ccc(Oc4ccccc4)cc3)cc2oc1=O)C(=O)O` [Example 12, 2-S-{[4-Hydroxy-2-oxo-7-(4-phenoxy-phenyl)-2H-chromene-3-carbonyl]-amino}-propionic acid], the “% Inhibition HIF-PH2” value is 100%.

As to `Cc1ccc2c(O)c(C(=O)NCC(=O)O)c(=O)oc2c1C` [Example 10, [(4-Hydroxy-7,8-dimethyl-2-oxo-2H-chromene-3-carbonyl)-amino]-acetic acid], 22.22 µM produced 100% inhibition.

On to `O=C(O)CNC(=O)c1c(O)c2cc(Cl)cc(Cl)c2oc1=O` [Example 13, [(6,8-Dichloro-4-hydroxy-2-oxo-2H-chromene-3-carbonyl)-amino]-acetic acid], for which the inhibition at 22.22 µM is 96%.

With `O=C(O)CNC(=O)c1c(O)c2cc(Br)ccc2oc1=O` [Example 2, [(6-Bromo-4-hydroxy-2-oxo-2H-chromene-3-carbonyl)-amino]-acetic acid], the inhibition at 22.22 µM came to 97%.

The assay is the same for the next values; noted with them: Concentration 50.00 μM.
The molecule `O=C(O)CNC(=O)c1c(O)c2cc(-c3cccnc3)ccc2oc1=O` [Example 29, [(4-Hydroxy-2-oxo-6-pyridin-3-yl-2H-chromene-3-carbonyl)-amino]-acetic acid] registered an inhibition at 50 µM of 97%.

In the case of `Cc1cccc2c(O)c(C(=O)NCC(=O)O)c(=O)oc12` [Example 20, [(4-Hydroxy-8-methyl-2-oxo-2H-chromene-3-carbonyl)-amino]-acetic acid], testing at 50 µM gave an inhibition of 99%.

Molecule `O=C(O)CNC(=O)c1c(O)c2c(OCc3ccccc3)cccc2oc1=O` [Example 46, [(5-Benzyloxy-4-hydroxy-2-oxo-2H-chromene-3-carbonyl)-amino]-acetic acid] gave an inhibition at 50 µM of 99%.

As for `Cc1ccc(COc2cccc3oc(=O)c(C(=O)NCC(=O)O)c(O)c23)cc1` [Example 48, {[4-Hydroxy-5-(4-methyl-benzyloxy)-2-oxo-2H-chromene-3-carbonyl]-amino}-acetic acid], the inhibition at 50 µM amounted to 99%.

`O=C(O)CNC(=O)c1c(O)c2cc(-c3ccccn3)ccc2oc1=O` [Example 30, [(4-Hydroxy-2-oxo-6-pyridin-2-yl-2H-chromene-3-carbonyl)-amino]-acetic acid]: the inhibition at 50 µM stood at 99%.

`O=C(O)CNC(=O)c1c(O)c2c(OCc3ccc(F)cc3)cccc2oc1=O` [Example 47, {[5-(4-Fluoro-benzyloxy)-4-hydroxy-2-oxo-2H-chromene-3-carbonyl]-amino}-acetic acid] returned an inhibition at 50 µM of 99%.

In turn, `Cn1nc(C(F)(F)F)cc1-c1cc(Cl)cc2c(O)c(C(=O)NCC(=O)O)c(=O)oc12` [Example 21, {[6-Chloro-4-hydroxy-8-(2-methyl-5-trifluoromethyl-2H-pyrazol-3-yl)-2-oxo-2H-chromene-3-carbonyl]-amino}-acetic acid] displayed an inhibition at 50 µM of 99%.

The molecule `O=C(O)CNC(=O)c1c(O)c2cc(Cl)cc(-c3cccnc3)c2oc1=O` [Example 23, [(6-Chloro-4-hydroxy-2-oxo-8-pyridin-3-yl-2H-chromene-3-carbonyl)-amino]-acetic acid] yielded an inhibition at 50 µM of 99%.

Take `Cc1cc(Cl)cc2c(O)c(C(=O)NCC(=O)O)c(=O)oc12` [Example 19, [(6-Chloro-4-hydroxy-8-methyl-2-oxo-2H-chromene-3-carbonyl)-amino]-acetic acid]: the inhibition at 50 µM came to 99%.

Still in this assay, the particulars now being: Concentration 200.00 μM.
Consider `Cc1ccc2oc(=O)c(C(=O)NCC(=O)O)c(O)c2c1` [Example 6, [(4-Hydroxy-6-methyl-2-oxo-2H-chromene-3-carbonyl)-amino]-acetic acid], for which at 200 µM the inhibition was 100%.

Turning to `CCOC(=O)CNC(=O)c1c(O)c2cc(Cl)cc(Cl)c2oc1=O` [Example 14, [(6,8-Dichloro-4-hydroxy-2-oxo-2H-chromene-3-carbonyl)-amino]-acetic acid ethyl ester], 200 µM produced 43% inhibition.

In the case of `O=C(O)CNC(=O)c1c(O)c2c(ccc3ccccc32)oc1=O` [Example 33, [(1-Hydroxy-3-oxo-3H-benzo[f]chromene-2-carbonyl)-amino]-acetic acid], at 200 µM the inhibition was 100%.

Take `O=C(O)CNC(=O)c1c(O)c2cccc(Cl)c2oc1=O` [Example 7, [(8-Chloro-4-hydroxy-2-oxo-2H-chromene-3-carbonyl)-amino]-acetic acid]: the inhibition at 200 µM came out at 100%.

The values above are taken from patent US8324405B2, “Chromene derivatives and use thereof as HIF hydroxylase activity inhibitors” (FibroGen, Inc., priority 2008, dated 2012).
